Assay results reported in patent US12590062B2, “PD-1/PD-L1 inhibitors” (Gilead Sciences, Inc., priority 2017, dated 2026).

Target: T1, PD-1/PD-L1 interaction (Homo sapiens, UniProt Q9NZQ7)
T1 construct: expressed in transfected cells; host or cells: CHO cells (aAPC-PD-L1) co-cultured with Jurkat cells overexpressing PD-1 and an NFAT-luciferase reporter
Assay: PD-1/PD-L1 NFAT reporter co-culture assay
Type: cell-based
Conditions: Jurkat PD-1 NFAT-luciferase cells co-cultured with aAPC-PD-L1 CHO cells, 6 hrs at 37° C.; read-out: EC50 NFAT Luciferase
Procedure: PD-1/PD-L1 NEAT Reporter Assay:
Compounds were tested in afunctional co-culture reporter assay in which TCR-mediated NFAT activity is inhibited by the engagement of PD-1 with PD-L1. […] CHO cells expressing surface-bound anti-CD3 antibodies and PD-L1 (artificial antigen presenting cells, aAPC-PD-L1) were first seeded overnight. Jurkat cells overexpressing PD-1 and expressing a luciferase construct under NFAT control are diluted in RPMI assay medium (RPMI 1640 with 2% FBS), mixed with compounds, and immediately seeded on the monolayer of aAPC-PD-L1. The co-culture is then incubated for 6 hrs at 37° C. Luciferase activity is assessed by adding the ONE-Glo reagent and measuring luminescence with a plate reader. EC50 values are calculated from the fit of the dose-response curves to a four-parameter equation (Table 3).

T1 sequence (Q9NZQ7 19-290): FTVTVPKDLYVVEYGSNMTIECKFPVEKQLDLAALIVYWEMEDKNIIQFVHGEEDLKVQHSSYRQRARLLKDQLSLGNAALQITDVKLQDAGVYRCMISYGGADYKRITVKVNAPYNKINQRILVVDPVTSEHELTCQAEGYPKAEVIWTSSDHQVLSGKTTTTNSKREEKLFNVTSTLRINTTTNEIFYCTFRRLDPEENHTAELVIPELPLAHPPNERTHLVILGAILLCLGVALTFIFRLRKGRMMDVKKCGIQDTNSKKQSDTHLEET

EC50 [µM] | SMILES
0.775 | COc1nc(OCc2cccc(-c3cccc(COc4nc(OC)c(CN[C@H]5CCC[C@H]5O)cc4Cl)c3C)c2C)c(Cl)cc1CN[C@H]1CCC[C@H]1O [Example 226, (1R,1′R,2S,2′S)-2,2′-((((((2,2′-dimethyl-[1,1′-biphenyl]-3,3′-diyl)bis(methylene))bis(oxy))bis(5-chloro-2-methoxypyridine-6,3-diyl))bis(methylene))bis(azanediyl))bis(cyclopentan-1-ol)]
0.07 | COc1nc(OCc2cccc(-c3cccc(COc4nc(OC)c(CN[C@@H](C)C(=O)O)cc4Cl)c3C)c2C)c(Cl)cc1CN[C@@H](C)C(=O)O [Example 98, (2S,2′S)-2,2′-((((((2,2′-dimethyl-[1,1′-biphenyl]-3,3′-diyl)bis(methylene))bis(oxy))bis(5-chloro-2-methoxypyridine-6,3-diyl))bis(methylene))bis(azanediyl))dipropionic acid]
0.062 | COc1nc(OCc2cccc(-c3cccc(COc4nc(OC)c(CN[C@@](C)(CO)C(=O)O)cc4Cl)c3C)c2C)c(Cl)cc1CN[C@@](C)(CO)C(=O)O [Example 44, (2S,2′S)-2,2′-((((((2,2′-dimethyl-[1,1′-biphenyl]-3,3′-diyl)bis(methylene))bis(oxy))bis(5-chloro-2-methoxypyridine-6,3-diyl))bis(methylene))bis(azanediyl))bis(3-hydroxy-2-methylpropanoic acid)]
≥ 50 | COc1nc(OCc2cccc(-c3cccc(COc4nc(OC)c(CN5CCOC(C(=O)O)C5)cc4Cl)c3C)c2C)c(Cl)cc1CN1CCOC(C(=O)O)C1 (centres unmarked) [Example 235]
0.329 | Cc1c(COc2nc(OCc3cccc(C#N)c3)c(CNC[C@@H](O)CC(=O)O)cc2Cl)cccc1-c1cccc(COc2nc(OCc3cccc(C#N)c3)c(CNC[C@@H](O)CC(=O)O)cc2Cl)c1C [Example 153, (3S,3′S)-4,4′-((((((2,2′-dimethyl-[1,1′-biphenyl]-3,3′-diyl)bis(methylene))bis(oxy))bis(5-chloro-2-((3-cyanobenzyl)oxy)pyridine-6,3-diyl))bis(methylene))bis(azanediyl))bis(3-hydroxybutanoic acid)]
1.29 | COc1nc(OCc2cccc(-c3cccc(COc4nc(OC)c(CNCCN5CCCS5(=O)=O)cc4Br)c3C)c2C)c(Br)cc1CNCCN1CCCS1(=O)=O [Example 264, 2,2′-(((((((2,2′-dimethyl-[1,1′-biphenyl]-3,3′-diyl)bis(methylene))bis(oxy))bis(5-bromo-2-methoxypyridine-6,3-diyl))bis(methylene))bis(azanediyl))bis(ethane-2,1-diyl))bis(isothiazolidine 1,1-dioxide)]

More lines, now with the values behind:

SMILES | EC50 [µM]
COc1nc(OCc2cccc(-c3cccc(COc4nc(OC)c(CNCc5nnc(C)o5)cc4Cl)c3C)c2C)c(Cl)cc1CNCc1nnc(C)o1 [Example 170, 1,1′-((((2,2′-dimethyl-[1,1′-biphenyl]-3,3′-diyl)bis(methylene))bis(oxy))bis(5-chloro-2-methoxypyridine-6,3-diyl))bis(N-((5-methyl-1,3,4-oxadiazol-2-yl)methyl)methanamine)] | ≥ 50
Cc1c(OC(F)(F)c2ccc(CNCC(=O)O)cc2)cccc1-c1cccc(OC(F)(F)c2ccc(CNCC(=O)O)cc2)c1C [Example 278, 2,2′-((((((2,2′-dimethyl-[1,1′-biphenyl]-3,3′-diyl)bis(oxy))bis(difluoromethylene))bis(4,1-phenylene))bis(methylene))bis(azanediyl))diacetic acid] | ≥ 50
COc1nc(OCc2cccc(-c3cccc(COc4nc(OC)c(CNCC(C)(C)C(=O)O)cc4Cl)c3C)c2C)c(Cl)cc1CNCC(C)(C)C(=O)O [Example 77, 3,3′-((((((2,2′-dimethyl-[1,1′-biphenyl]-3,3′-diyl)bis(methylene))bis(oxy))bis(5-chloro-2-methoxypyridine-6,3-diyl))bis(methylene))bis(azanediyl))bis(2,2-dimethylpropanoic acid)] | ≥ 50
C=CCOC(=O)[C@H]1CCN[C@H]1c1cc(Cl)c(OCc2cccc(-c3cccc(COc4nc(OC)c([C@@H]5NCC[C@@H]5C(=O)O)cc4Cl)c3C)c2C)nc1OC [Example 105, (2R,3S)-2-(6-((3′-(((5-((2R,3S)-3-((allyloxy)carbonyl)pyrrolidin-2-yl)-3-chloro-6-methoxypyridin-2-yl)oxy)methyl)-2,2′-dimethyl-[1,1′-biphenyl]-3-yl)methoxy)-5-chloro-2-methoxypyridin-3-yl)pyrrolidine-3-carboxylic acid] | ≥ 50
N#Cc1cncc(COc2nc(OCc3cccc(-c4cccc(COc5nc(OCc6cncc(C#N)c6)c(CNC[C@@H](O)CC(=O)O)cc5Br)c4Cl)c3Cl)ccc2CNC[C@@H](O)CC(=O)O)c1 [Example 194, (S)-4-(((6-((3′-(((3-Bromo-5-((((S)-3-carboxy-2-hydroxypropyl)amino)methyl)-6-((5-cyanopyridin-3-yl)methoxy)pyridin-2-yl)oxy)methyl)-2,2′-dichloro-[1,1′-biphenyl]-3-yl)methoxy)-2-((5-cyanopyridin-3-yl)methoxy)pyridin-3-yl)methyl)amino)-3-hydroxybutanoic acid] | 1.26
N#Cc1cncc(COc2nc(OCc3cccc(-c4cccc(COc5ccc(CNC[C@@H](O)CC(=O)O)c(OCc6cncc(C#N)c6)n5)c4Cl)c3Cl)ccc2CNC[C@@H](O)CC(=O)O)c1 [Example 195, (3S,3′S)-4,4′-((((((2,2′-Dichloro-[1,1′-biphenyl]-3,3′-diyl)bis(methylene))bis(oxy))bis(2-((5-cyanopyridin-3-yl)methoxy)pyridine-6,3-diyl))bis(methylene))bis(azanediyl))bis(3-hydroxybutanoic acid)] | 0.408
COc1nc(OCc2cccc(-c3cccc(COc4nc(OC)c(CN[C@@H]5CONC5=O)cc4Cl)c3C)c2C)c(Cl)cc1CN[C@@H]1CONC1=O [Example 173, (4R,4′R)-4,4′-((((((2,2′-dimethyl-[1,1′-biphenyl]-3,3′-diyl)bis(methylene))bis(oxy))bis(5-chloro-2-methoxypyridine-6,3-diyl))bis(methylene))bis(azanediyl))bis(isoxazolidin-3-one)] | ≥ 50
COc1nc(OCc2cccc(-c3cccc(COc4nc(OC)c(CNC(C)(C)C(=O)O)cc4Cl)c3C)c2C)c(Cl)cc1CN [Example 96, 2-(((6-((3′-(((5-(aminomethyl)-3-chloro-6-methoxypyridin-2-yl)oxy)methyl)-2,2′-dimethyl-[1,1′-biphenyl]-3-yl)methoxy)-5-chloro-2-methoxypyridin-3-yl)methyl)amino)-2-methylpropanoic acid] | 0.912
COc1nc(OCc2cccc(-c3cccc(COc4nc(OC)c(CN[C@H](C(=O)O)c5ccccc5)cc4Cl)c3C)c2C)c(Cl)cc1CN[C@H](C(=O)O)c1ccccc1 [Example 86, (2S,2′S)-2,2′-((((((2,2′-dimethyl-[1,1′-biphenyl]-3,3′-diyl)bis(methylene))bis(oxy))bis(5-chloro-2-methoxypyridine-6,3-diyl))bis(methylene))bis(azanediyl))bis(2-phenylacetic acid)] | ≥ 50
Cc1c(COc2cc(OCc3cncc(C#N)c3)c(CN3CC[C@H]3CO)cc2Br)cccc1-c1cccc(COc2cc(OCc3cncc(C#N)c3)c(CN3CC[C@H]3CO)cc2Br)c1C [Example 260, 5,5′-((((((2,2′-dimethyl-[1,1′-biphenyl]-3,3′-diyl)bis(methylene))bis(oxy))bis(4-bromo-6-(((S)-2-(hydroxymethyl)azetidin-1-yl)methyl)-3,1-phenylene))bis(oxy))bis(methylene))dinicotinonitrile] | 0.463
CC[C@@H](NCc1cc(Cl)c(OCc2cccc(-c3cccc(COc4nc(OC)c(CN[C@H](CC)C(=O)O)cc4Cl)c3C)c2C)nc1OC)C(=O)O [Example 99, (2R,2′R)-2,2′-((((((2,2′-dimethyl-[1,1′-biphenyl]-3,3′-diyl)bis(methylene))bis(oxy))bis(5-chloro-2-methoxypyridine-6,3-diyl))bis(methylene))bis(azanediyl))dibutyric acid] | 0.157
COc1nc(OCc2cccc(-c3cccc(COc4nc(OC)c(CNCC(O)C(F)F)cc4Cl)c3C)c2C)c(Cl)cc1CNCC(O)C(F)F (centres unmarked) [Example 176, 3,3′-((((((2,2′-dimethyl-[1,1′-biphenyl]-3,3′-diyl)bis(methylene))bis(oxy))bis(5-chloro-2-methoxypyridine-6,3-diyl))bis(methylene))bis(azanediyl))bis(1,1-difluoropropan-2-ol)] | 2.88
Cc1c(COc2cc(OCc3cccc(C#N)c3)c(CNCCO)cc2Cl)cccc1-c1cccc(COc2cc(OCc3cccc(C#N)c3)c(CNCCO)cc2Cl)c1C [Example 284, 3,3′-((((((2,2′-dimethyl-[1,1′-biphenyl]-3,3′-diyl)bis(methylene))bis(oxy))bis(4-chloro-6-(((2-hydroxyethyl)amino)methyl)-3,1-phenylene))bis(oxy))bis(methylene))dibenzonitrile] | 1.46
COc1nc(OCc2cccc(-c3cccc(COc4nc(OC)c(CNCCNS(C)(=O)=O)cc4Br)c3C)c2C)c(Br)cc1CNCCNS(C)(=O)=O [Example 266, N,N′-(((((((2,2′-dimethyl-[1,1′-biphenyl]-3,3′-diyl)bis(methylene))bis(oxy))bis(5-bromo-2-methoxypyridine-6,3-diyl))bis(methylene))bis(azanediyl))bis(ethane-2,1-diyl))dimethanesulfonamide] | 1.38
